Reference: patent US20100311714A1, “1H-IMIDAZO[4,5-c]QUINOLINONE COMPOUNDS” (priority 2009, published 2010)
pIC50: −log10 of the molar value. Like-named read-outs stand apart in the source and are kept apart here.

Test system: S6 Ribosomal Protein phosphorylation Ser235/236 in TSC1 null mouse embryo fibroblast (MEF) cells
Assay: Reverse protein array, S6 Ribosomal Protein phosphorylation in TSC1 null MEF cells
Format: cell-based
Conditions: 1 h, TSC1-/- MEFs, 60 minutes
Method in brief: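 Phospho-S6 (Ser235/236) was quantified by reverse protein array of cell lysates with a phospho-specific primary antibody. […]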

Structure (SMILES)	pIC50 (read-out: p-S6 IC50)	pIC50 (read-out: p-S6)
CNc1ncc(-c2ccc3ncc4c(c3c2)n(-c2ccc(N3CC[C@@H](O)C3)nc2C)c(=O)n4C)cn1 [Example 34.1, 1-[6-((R)-3-Hydroxy-pyrrolidin-1-yl)-2-methyl-pyridin-3-yl]-3-methyl-8-(2-methylamino-pyrimidin-5-yl)-1,3-dihydro-imidazo[4,5-c]quinolin-2-one]	8.52	–
CNc1ncc(-c2ccc3ncc4c(c3c2)n(-c2ccc(N3CC[C@H](O)C3)nc2C)c(=O)n4C)cc1Cl [Example 32.4, 8-(5-Chloro-6-methylamino-pyridin-3-yl)-1-[6-((S)-3-hydroxy-pyrrolidin-1-yl)-2-methyl-pyridin-3-yl]-3-methyl-1,3-dihydro-imidazo[4,5-c]quinolin-2-one]	8.40	–
Cc1nc(N2CCC(O)C2)ccc1-n1c(=O)n(C)c2cnc3ccc(-c4cncc(C(C)(C)O)c4)cc3c21 (stereo not shown) [Example 27.5, 8-[5-(1-Hydroxy-1-methyl-ethyl)-pyridin-3-yl]-1-[6-(3-hydroxy-pyrrolidin-1-yl)-2-methyl-pyridin-3-yl]-3-methyl-1,3-dihydro-imidazo[4,5-c]quinolin-2-one]	7.48	–
COc1cc(-c2ccc3ncc4c(c3c2)n(-c2ccc(N3CC[C@H](O)C3)nc2C)c(=O)n4C)cnc1CO [Example 32.7, 8-(6-Hydroxymethyl-5-methoxy-pyridin-3-yl)-1-[6-((S)-3-hydroxy-pyrrolidin-1-yl)-2-methyl-pyridin-3-yl]-3-methyl-1,3-dihydro-imidazo[4,5-c]quinolin-2-one]	7.67	–
Cc1nc(F)ccc1-n1c(=O)n(C)c2cnc3ccc(-c4cncc(N5CCC5)c4)cc3c21 [Example 7.6, 8-(5-Azetidin-1-yl-pyridin-3-yl)-1-(6-fluoro-2-methyl-pyridin-3-yl)-3-methyl-1,3-dihydro-imidazo[4,5-c]quinolin-2-one]	8.15	–
CCNc1cc(-c2ccc3ncc4c(c3c2)n(-c2ccc(N3CC(F)(F)C(F)(F)C3)nc2C)c(=O)n4C)cnc1CO [Example 35.2, 8-(5-Ethylamino-6-hydroxymethyl-pyridin-3-yl)-3-methyl-1-[2-methyl-6-(3,3,4,4-tetrafluoro-pyrrolidin-1-yl)-pyridin-3-yl]-1,3-dihydro-imidazo[4,5-c]quinolin-2-one]	9.00	–
COc1cc(-c2ccc3ncc4c(c3c2)n(-c2ccc(F)nc2C)c(=O)n4C)cnc1CO [Example 7.10, 1-(6-Fluoro-2-methyl-pyridin-3-yl)-8-(6-hydroxymethyl-5-methoxy-pyridin-3-yl)-3-methyl-1,3-dihydro-imidazo[4,5-c]quinolin-2-one]	7.82	–
COCc1ncc(-c2ccc3ncc4c(c3c2)n(-c2ccc(F)nc2C)c(=O)n4C)cc1OC [Example 7.7, 1-(6-Fluoro-2-methyl-pyridin-3-yl)-8-(5-methoxy-6-methoxymethyl-pyridin-3-yl)-3-methyl-1,3-dihydro-imidazo[4,5-c]quinolin-2-one]	6.95	–
COc1cc(-c2ccc3ncc4c(c3c2)n(-c2ccc(N3CCC(OC)C3)nc2C)c(=O)n4C)cnc1CO (stereo not shown) [Example 28.3, 8-(6-Hydroxymethyl-5-methoxy-pyridin-3-yl)-1-[6-(3-methoxy-pyrrolidin-1-yl)-2-methyl-pyridin-3-yl]-3-methyl-1,3-dihydro-imidazo[4,5-c]quinolin-2-one]	8.10	–
CNc1ncc(-c2ccc3ncc4c(c3c2)n(-c2ccc(N3CCC(OC)C3)nc2C)c(=O)n4C)cn1 (stereo not shown) [Example 28.2, 1-[6-(3-Methoxy-pyrrolidin-1-yl)-2-methyl-pyridin-3-yl]-3-methyl-8-(2-methylamino-pyrimidin-5-yl)-1,3-dihydro-imidazo[4,5-c]quinolin-2-one]	9.00	–
COc1ccc(-n2c(=O)n(C)c3cnc4ccc(-c5cncc(N6CCC6)c5)cc4c32)c(OC)n1 [Example 8.11, 8-(5-Azetidin-1-yl-pyridin-3-yl)-1-(2,6-dimethoxy-pyridin-3-yl)-3-methyl-1,3-dihydro-imidazo[4,5-c]quinolin-2-one]	9.00	–
Cc1nc(N2CC(O)C2)ccc1-n1c(=O)n(C)c2cnc3ccc(-c4cncc(C(C)(C)O)c4)cc3c21 [Example 29.1, 1-[6-(3-Hydroxy-azetidin-1-yl)-2-methyl-pyridin-3-yl]-8-[5-(1-hydroxy-1-methyl-ethyl)-pyridin-3-yl]-3-methyl-1,3-dihydro-imidazo[4,5-c]quinolin-2-one]	7.82	–
CNC(=O)c1ccc(-c2ccc3ncc4c(c3c2)n(-c2cccnc2C)c(=O)n4C)cc1 [Example 2.4, N-Methyl-4-[3-methyl-1-(2-methyl-pyridin-3-yl)-2-oxo-2,3-dihydro-1H-imidazo[4,5-c]quinolin-8-yl]-benzamide]	–	7.64
COc1ccc(-n2c(=O)n(C)c3cnc4ccc(-c5cnc(C(OC)OC)c(OC)c5)cc4c32)c(OC)n1 [Example 8.13, 8-(6-Dimethoxymethyl-5-methoxy-pyridin-3-yl)-1-(2,6-dimethoxy-pyridin-3-yl)-3-methyl-1,3-dihydro-imidazo[4,5-c]quinolin-2-one]	7.82	–
COc1cc(-c2ccc3ncc4c(c3c2)n(-c2ccc(N3CCCC3)nc2C)c(=O)n4C)cnc1CO [Example 25.4, 8-(6-Hydroxymethyl-5-methoxy-pyridin-3-yl)-3-methyl-1-(2-methyl-6-pyrrolidin-1-yl-pyridin-3-yl)-1,3-dihydro-imidazo[4,5-c]quinolin-2-one]	8.15	–
COCc1ncc(-c2ccc3ncc4c(c3c2)n(-c2cccnc2C)c(=O)n4C)cc1OC [Example 2.30, 8-(5-Methoxy-6-methoxymethyl-pyridin-3-yl)-3-methyl-1-(2-methyl-pyridin-3-yl)-1,3-dihydro-imidazo[4,5-c]quinolin-2-one]	7.47	–
